Drawing on US20170260226A1, “3-NITROGEN OR SULPHUR SUBSTITUTED OESTRA-1,3,5(10),16-TETRAENE AKR1C3 INHIBITORS” (BAYER PHARMA AKTIENGESELLSCHAFT, priority 2014, published 2017), this text covers IC50 for 5 compounds.

Experiment [1] deals with T1, AKR1C3 (Homo sapiens, UniProt P42330).
T1 sequence (P42330 1-323): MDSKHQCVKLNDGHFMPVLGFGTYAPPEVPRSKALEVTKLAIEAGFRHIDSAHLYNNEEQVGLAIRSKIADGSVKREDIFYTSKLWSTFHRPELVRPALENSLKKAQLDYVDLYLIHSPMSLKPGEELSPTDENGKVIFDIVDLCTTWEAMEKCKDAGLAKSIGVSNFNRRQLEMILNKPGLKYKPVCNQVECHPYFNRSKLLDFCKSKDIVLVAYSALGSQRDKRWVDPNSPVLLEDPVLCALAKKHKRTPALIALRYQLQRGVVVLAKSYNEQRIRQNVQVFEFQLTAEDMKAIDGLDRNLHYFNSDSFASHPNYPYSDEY
Kind of experiment: AKR1C3 inhibition in a cell-based system (HEK293 cells transfected with AKR1C3 expression plasmid, coumberon substrate). Details: expressed in transfected cells; host or cells: HEK293 cells (ATCC). Particulars: mean values; HEK293 cells transfected with AKR1C3, coumberon 6×10^−6M, 3 h; read-out: Cellular AKR1C3 inhibition IC50. The method, then: The inhibition of AKR1C3 by the substances described in this invention was measured in a cell-based assay using coumberon as the substrate for AKR1C3 (Halim, M., Yee, D., J., and Sames, D., J. (2008). Am Chem Soc, 130, 14123-14128 and Yee, D., J., Balsanek, V., Bauman, D., R., Penning, T., M., and Sames, D. (2006), Proc Natl Acad Sci USA 103, 13304-13309) (cf. Example 48).
The cell system used was HEK293 cells (ATCC, USA) (DMEM/F12, 10% FCS, 2 mM L-Glutamine, PSG). The cells were transfected with an AKR1C3 expression plasmid (pCMV6-AC-AKR1C3, GenBank Accession No. NM 003739.4), harvested after 24 hours and subsequently frozen. For assays, the frozen cells were thawed in assay medium (DMEM/F12 w/o phenolred, 0.005% Tween, 10% FCS, 2 mM L-Glutamine, PSG). Cells were seeded at 2500 cells/well into 384-well low volume or 1536-well plates (Greiner Bio-One, Frickenhausen, Germany) that contained 40-50 nl of a 100 fold concentrated compound solution in DMSO. After incubation at room temperature for 15 minutes, coumberon in PBS was added to a final concentration of 6×10^−6M. Following a 3 h incubation at room temperature, the reaction was stopped by lysing the cells with 0.4% Triton X-100. Coumberol fluorescence intensity was measured at 520 nm (excitation 380 nm) with a suitable measuring instrument (Pherastar, BMG). […] The data were normalized (transfected cells+coumberon=0% inhibition; no cells+coumberone=100% inhibition). Substances were usually tested at 11 different concentrations on the same microtiter plate in a range between 96.8 pM to 20 μM (20 μM, 5.9 μM, 1.7 μM, 0.5 μM, 0.15 μM, 44 nM, 12.9 nM, 3.8 nM, 1.1 nM, 0.3 nM and 96.8 pM). The dilutions were carried out on a 100 fold concentrated solution by serial dilution in duplicates. From the obtained data IC50 values were calculated by a 4-parameter fit.

For experiment [2], the target named is T1, AKR1C3. Kind of experiment: AKR1C3 enzyme inhibition assay (coumberone to coumberol fluorescence). The experiment is classed as biochemical. Details: GST (cleaved yes); made in house; host or cells: E. coli. Particulars: mean values; 10 μM NADPH, 0.3 μM coumberone, 3 h at room temperature. The protocol: The AKR1C3-inhibitory action of the substances of this invention was measured in the AKR1C3 assay described in the paragraphs which follow.
Essentially, the enzyme activity is measured by quantifying the coumberol formed from coumberone (Halim, M., Yee, D., J., and Sames, D., J. A., M. (2008). Chem Soc 130, 14123-14128 and Yee, D., J., Balsanek, V., Bauman, D., R., Penning, T., M., and Sames, D. (2006). Proc Natl Acad Sci USA, 103, 13304-13309). In this assay, the increase in the highly fluorescent coumberol can be determined by NADPH (nicotinamide adenine dinucleotide phosphate)-dependent reduction of the nonfluorescent coumberone by AKR1C3.
The enzyme used was recombinant human AKR1C3 (aldo-keto reductase family 1 member C3) (GenBank Accession No. NM_003739). This was expressed as the GST (glutathione S-transferase) fusion protein in E. coli and purified by means of glutathione-Sepharose affinity chromatography. The GST was removed by thrombin digestion with subsequent size exclusion chromatography (Dufort, I., Rheault, P., Huang, X., F., Soucy, P., and Luu-The, V. (1999). Endocrinology,140, 568-574).
For the assay, 40-50 nl of a 100-fold concentrated solution of the test substance in DMSO were pipetted into a black low-volume 384-well microtitre plate (Greiner Bio-One, Frickenhausen, Germany), 2-2.5 μl of a solution of AKR1C3 in assay buffer [50 mM potassium phosphate buffer pH 7, 1 mM DTT, 0.0022% (w/v) Pluronic F-127, 0.01% BSA (w/v) and protease inhibitor cocktail (complete, EDTA-free Protease Inhibitor Cocktail from Roche)] were added and the mixture was incubated for 20 min, in order to enable preliminary binding of the substances to the enzyme prior to the enzyme reaction. Then the enzyme reaction was started by adding 2-2.5 μl of a solution of NADPH and coumberone in assay buffer (final assay concentration was 10 μM NADPH and 0.3 μM coumberone) and the resulting mixture was incubated at room temperature for 3 h. Typical concentrations were depending on the linear range of the enzyme reaction during the reaction time about 1 nM. The reaction was stopped by adding 2 μl of a stop solution consisting of the AKR1C3 inhibitor EM-1404 to a final concentration of 1 μM. Subsequently, the fluorescence of coumberol was measured at 520 nm (excitation at 380 nm) with a suitable measuring instrument (Pherastar, BMG). […] The data were normalized (enzyme+coumberon substrate in assay buffer=0% inhibition; coumberone substrate only in assay buffer=100% inhibition). Substances were usually tested at 11 different concentrations on the same microtiter plate in a range between 96.8 pM to 20 μM (20 μM, 5.9 μM, 1.7 μM, 0.5 μM, 0.15 μM, 44 nM, 12.9 nM, 3.8 nM, 1.1 nM, 0.3 nM and 96.8 pM). The dilutions were carried out on a 100 fold concentrated solution by serial dilution in duplicates. From the obtained data IC50 values were calculated by a 4-parameter fit.

Regarding `C[C@]12CC[C@@H]3c4ccc(NC(=O)NCCC(=O)O)cc4CC[C@H]3[C@@H]1CC=C2c1cncc(F)c1` [Example 42, N-{[17-(5-fluoropyridin-3-yl)estra-1(10),2,4,16-tetraen-3-yl]carbamoyl}-beta-alanine], the IC50 (as a rule, the concentration that gives 50% inhibition) on AKR1C3 [1] is 8.09 µM; against AKR1C3 [2] it was 0.0083 µM.
For the compound `CN(C(=O)CCC(=O)O)c1ccc2c(c1)CC[C@@H]1[C@@H]2CC[C@]2(C)C(c3cncc(F)c3)=CC[C@@H]12` [Example 35, 4-{[17-(5-fluoropyridin-3-yl)estra-1(10),2,4,16-tetraen-3-yl](methyl)amino}-4-oxobutanoic acid], the values for the IC50 on AKR1C3 [1] and against AKR1C3 [2] were 0.21 µM and 0.0032 µM, respectively.
`C[C@]12CC[C@@H]3c4ccc(NC(=O)CCCO)cc4CC[C@H]3[C@@H]1CC=C2c1cncc(F)c1` [Example 27, N-[17-(5-fluoropyridin-3-yl)estra-1(10),2,4,16-tetraen-3-yl]-4-hydroxybutanamide]: the figures for the IC50 at AKR1C3 [1] and on AKR1C3 [2] were 0.11 µM and 0.005 µM, respectively.
On to `CC(=O)NS(=O)(=O)CCC(=O)N(C)c1ccc2c(c1)CC[C@@H]1[C@@H]2CC[C@]2(C)C(c3cncc(F)c3)=CC[C@@H]12` [Example 31, 3-(acetylsulfamoyl)-N-[17-(5-fluoropyridin-3-yl)estra-1(10),2,4,16-tetraen-3-yl]-N-methylpropanamide], for which the IC50 amounted to 1.54 µM on AKR1C3 [1] and 0.0041 µM against AKR1C3 [2].
For `Cc1ccncc1C1=CC[C@H]2[C@@H]3CCc4cc(S(=O)(=O)CCCC(=O)O)ccc4[C@H]3CC[C@]12C` [Example 18, 4-{[17-(4-methylpyridin-3-yl)estra-1,3,5(10),16-tetraen-3-yl]sulfonyl}butanoic acid], the IC50 came out at 1.79 µM at AKR1C3 [1] and 0.0335 µM at AKR1C3 [2].
